pIC50, pKi: −log10 of the molar value. Where two headings read alike, the source gives them in different places.

Results on one molecule are retold here after PMC6720883, “In Vitro Inhibitory Effects of APINACA on Human Major Cytochrome P450, UDP-Glucuronosyltransferase Enzymes, and Drug Transporters” (Molecules, 2019).

The target in data set [1] is T1, UGT1A9 (Homo sapiens, UniProt O60656).
T1 sequence (O60656 26-530): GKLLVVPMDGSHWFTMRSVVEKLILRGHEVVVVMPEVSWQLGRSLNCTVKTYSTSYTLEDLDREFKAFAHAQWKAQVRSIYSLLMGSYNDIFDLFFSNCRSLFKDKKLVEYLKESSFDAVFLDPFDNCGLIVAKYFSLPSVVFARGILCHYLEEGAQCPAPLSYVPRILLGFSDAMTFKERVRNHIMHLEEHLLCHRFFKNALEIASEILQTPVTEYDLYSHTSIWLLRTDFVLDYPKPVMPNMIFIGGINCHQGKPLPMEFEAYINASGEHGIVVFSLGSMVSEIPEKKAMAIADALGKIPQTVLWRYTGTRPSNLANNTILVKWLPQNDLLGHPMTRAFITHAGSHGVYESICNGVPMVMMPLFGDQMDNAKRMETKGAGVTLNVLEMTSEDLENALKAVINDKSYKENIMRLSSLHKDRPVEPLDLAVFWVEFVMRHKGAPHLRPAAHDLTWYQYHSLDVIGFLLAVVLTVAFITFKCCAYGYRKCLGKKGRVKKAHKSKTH
As to the kind of experiment: Inhibition of UGT1A9-catalyzed mycophenolic acid glucuronidation in human liver microsomes. Type of data set: in vitro ADME. Further details: […]; tissue Corning Life Sciences. Particulars: IC50 UGT1A9 mycophenolic acid glucuronidation, pooled human liver microsomes. An excerpt: (§1) 12.5 (Systat Software, Inc.; San Jose, CA, USA). […] 1.1 (Systat Software, Inc.).
Background: Liver microsomes are a subcellular fraction often used to study metabolism.

The target of data set [2] is T1, UGT1A9. Briefly: Enzyme kinetic analysis of UGT1A9 inhibition (Dixon plot) in human liver microsomes. Type of data set: in vitro ADME. Further details: […]; tissue Corning Life Sciences. On the procedure: The reaction was stopped by adding 100 μL of ice cold acetonitrile containing propofol glucuronide (internal standard), and the mixtures were centrifuged at 13,000× g for 4 min.
as §1

Data set [3] deals with OAT1 (Homo sapiens, UniProt Q4U2R8). Briefly: Uptake of [3-H]para-aminohippuric acid in HEK293-OAT1 cells.
Data set [4] has as its target P-glycoprotein (P-gp) (Homo sapiens, UniProt P08183). As to the kind of experiment: B to A transport of [3-H]digoxin in LLC-PK1-MDR1 cells. As for the experimental part:
The cells were seeded onto filter membranes at a density of 2 × 10^5 cells/well for 5 days with TEER values over 450 Ω·cm^2. The B to A transport of 0.1 μM [3-H]digoxin in LLC-PK1-MDR1 cells was measured by adding 1.5 mL of HBSS containing APINACA (final concentrations of 0–100 μM) on the basal side and by adding 0.5 mL of HBSS without APINACA on the apical side of the insert using protocols identical to those described above.
(§2) 1.1 (Systat Software, Inc.).

For data set [5], the target named is UGT2B7 (Homo sapiens, UniProt P16662). Briefly: Inhibition of UGT2B7-catalyzed naloxone 3-β-D-glucuronidation in human liver microsomes. It counts as in vitro ADME.
Method: The inhibitory effect of APINACA and typical UGT inhibitors on UGT1A1, UGT1A3, UGT1A4, UGT1A6, UGT1A9, and UGT2B7 were evaluated following our previous method by LC–MS/MS after incubation of ultrapooled human liver microsomes with a cocktail of UGT substrates [44]. […] The reactions were initiated by adding UDPGA, and the incubation continued for 60 min at 37 °C in a shaking water bath. The reactions were terminated by adding 50 μL of ice-cold acetonitrile containing internal standards (propofol glucuronide for chenodeoxycholic acid 24-acyl-β-glucuronide and mycophenolic acid glucuronide; and meloxicam for SN-38 glucuronide, trifluoperazine glucuronide, N-acetylserotonin β-D-glucuronide, and naloxone 3-β-D-glucuronide). The incubation mixtures were centrifuged at 13,000× g for 8 min at 4 °C. Next, 50 μL of each supernatant of A and B set was mixed, and aliquots (5 μL) were analyzed by LC–MS/MS. All assays were performed in triplicate, and the average values were used in calculations.
To measure the time-dependent inhibition, human liver microsomes were preincubated with the various concentrations of APINACA (final concentrations of 0.1–100 μM) and UDPGA for 30 min at 37 °C. Next, the reaction mixtures were incubated with UGT probe substrate cocktail sets for 60 min at 37 °C. The control reaction was performed by adding methanol instead of the test compounds.
The target in data set [6] is CYP3A4 (Homo sapiens, UniProt P08684). Briefly: Inhibition of CYP3A4-mediated midazolam 1′-hydroxylase in ultrapooled human liver microsomes. It counts as in vitro ADME. Particulars: for IC50: CYP3A4 midazolam 1′-hydroxylase. As for the experimental part: The inhibitory potentials (IC50 values) of APINACA and typical CYP inhibitors on CYP 1A2, 2A6, 2C8, 2C9, 2C19, 2D6, and 3A4 activities in pooled human liver microsomes were evaluated following our previous method using a cocktail of CYP substrates, followed by LC–MS/MS [43]. […] After 3 min of preincubation at 37 °C, the reaction mixtures were incubated for 15 min at 37 °C with the addition of NADPH in a shaking water bath. The reaction was stopped by adding 100 μL of ice cold methanol containing internal standards (d9-1′-hydroxybufuralol for 1′-hydroxybufuralol, 4′-hydroxydiclofenac, 7-hydroxycoumarin, 1′-hydroxymidazolam, and 4′-hydroxymephenytoin; ^13C2, ^15N-acetaminophen for acetaminophen and N-desethylamodiaquine). The incubation mixtures were centrifuged at 13,000× g for 8 min at 4 °C, and 50 μL of each supernatant was diluted with 50 μL of water. Aliquots (5 μL) of the diluted supernatants were analyzed by LC–MS/MS. All assays were performed in triplicate, and the average values were used for subsequent calculations.
To measure the time-dependent inhibition, human liver microsomes were preincubated with the various concentrations of APINACA (final concentrations of 0.1−100 μM) and NADPH for 30 min at 37 °C. Next, the reaction mixtures were incubated with a seven-CYP probe substrate cocktail or bupropion for 15 min at 37 °C. The control reaction was performed by adding methanol instead of the test compounds.
The column and autosampler temperatures were 40 °C and 4 °C, respectively.
The data were processed using Mass Hunter software (Agilent Technologies).
as §2

Sequence of CYP3A4 (P08684 2-503): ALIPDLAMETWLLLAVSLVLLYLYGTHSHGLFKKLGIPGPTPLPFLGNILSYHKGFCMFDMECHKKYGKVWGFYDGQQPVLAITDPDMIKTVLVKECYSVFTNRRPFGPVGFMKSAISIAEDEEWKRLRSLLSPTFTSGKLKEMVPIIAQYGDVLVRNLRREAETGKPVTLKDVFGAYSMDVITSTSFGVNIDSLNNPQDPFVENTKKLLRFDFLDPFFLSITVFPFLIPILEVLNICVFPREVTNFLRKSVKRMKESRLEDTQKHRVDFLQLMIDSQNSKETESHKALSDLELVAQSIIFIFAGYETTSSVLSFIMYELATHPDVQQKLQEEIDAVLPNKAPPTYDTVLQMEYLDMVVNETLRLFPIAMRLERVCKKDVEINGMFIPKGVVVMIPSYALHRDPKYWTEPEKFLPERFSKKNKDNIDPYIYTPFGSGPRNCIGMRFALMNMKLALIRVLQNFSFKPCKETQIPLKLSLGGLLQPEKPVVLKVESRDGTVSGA
Sequence of UGT2B7 (P16662 24-529): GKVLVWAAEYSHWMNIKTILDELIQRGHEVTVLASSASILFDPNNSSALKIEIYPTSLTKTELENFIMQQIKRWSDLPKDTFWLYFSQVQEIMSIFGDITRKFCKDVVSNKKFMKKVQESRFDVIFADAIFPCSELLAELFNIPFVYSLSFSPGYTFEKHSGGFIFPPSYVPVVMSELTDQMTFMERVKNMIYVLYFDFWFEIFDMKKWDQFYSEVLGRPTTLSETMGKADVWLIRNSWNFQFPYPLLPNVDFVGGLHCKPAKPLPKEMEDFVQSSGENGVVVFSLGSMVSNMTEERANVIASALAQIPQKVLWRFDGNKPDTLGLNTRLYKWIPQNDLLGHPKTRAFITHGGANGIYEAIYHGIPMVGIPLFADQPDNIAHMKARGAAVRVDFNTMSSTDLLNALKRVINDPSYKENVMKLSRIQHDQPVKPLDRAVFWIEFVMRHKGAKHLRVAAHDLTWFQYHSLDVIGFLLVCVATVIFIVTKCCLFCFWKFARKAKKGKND
Sequence of OAT1 (Q4U2R8 whole entry): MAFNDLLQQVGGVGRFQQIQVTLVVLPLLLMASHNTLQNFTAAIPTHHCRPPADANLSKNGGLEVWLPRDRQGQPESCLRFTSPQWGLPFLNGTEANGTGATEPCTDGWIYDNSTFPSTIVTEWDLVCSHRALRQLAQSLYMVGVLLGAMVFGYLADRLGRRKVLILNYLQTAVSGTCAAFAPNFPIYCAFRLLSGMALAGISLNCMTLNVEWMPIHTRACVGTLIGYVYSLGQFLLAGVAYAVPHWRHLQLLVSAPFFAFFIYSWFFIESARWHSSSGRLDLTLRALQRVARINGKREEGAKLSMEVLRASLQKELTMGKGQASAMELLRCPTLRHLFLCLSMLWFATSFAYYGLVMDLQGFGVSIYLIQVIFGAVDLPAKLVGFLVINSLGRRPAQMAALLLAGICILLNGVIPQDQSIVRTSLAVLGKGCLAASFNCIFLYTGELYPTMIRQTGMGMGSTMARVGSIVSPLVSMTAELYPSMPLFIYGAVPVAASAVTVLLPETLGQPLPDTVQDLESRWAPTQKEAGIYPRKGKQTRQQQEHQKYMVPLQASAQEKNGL
Sequence of P-glycoprotein (P-gp) (P08183 whole entry): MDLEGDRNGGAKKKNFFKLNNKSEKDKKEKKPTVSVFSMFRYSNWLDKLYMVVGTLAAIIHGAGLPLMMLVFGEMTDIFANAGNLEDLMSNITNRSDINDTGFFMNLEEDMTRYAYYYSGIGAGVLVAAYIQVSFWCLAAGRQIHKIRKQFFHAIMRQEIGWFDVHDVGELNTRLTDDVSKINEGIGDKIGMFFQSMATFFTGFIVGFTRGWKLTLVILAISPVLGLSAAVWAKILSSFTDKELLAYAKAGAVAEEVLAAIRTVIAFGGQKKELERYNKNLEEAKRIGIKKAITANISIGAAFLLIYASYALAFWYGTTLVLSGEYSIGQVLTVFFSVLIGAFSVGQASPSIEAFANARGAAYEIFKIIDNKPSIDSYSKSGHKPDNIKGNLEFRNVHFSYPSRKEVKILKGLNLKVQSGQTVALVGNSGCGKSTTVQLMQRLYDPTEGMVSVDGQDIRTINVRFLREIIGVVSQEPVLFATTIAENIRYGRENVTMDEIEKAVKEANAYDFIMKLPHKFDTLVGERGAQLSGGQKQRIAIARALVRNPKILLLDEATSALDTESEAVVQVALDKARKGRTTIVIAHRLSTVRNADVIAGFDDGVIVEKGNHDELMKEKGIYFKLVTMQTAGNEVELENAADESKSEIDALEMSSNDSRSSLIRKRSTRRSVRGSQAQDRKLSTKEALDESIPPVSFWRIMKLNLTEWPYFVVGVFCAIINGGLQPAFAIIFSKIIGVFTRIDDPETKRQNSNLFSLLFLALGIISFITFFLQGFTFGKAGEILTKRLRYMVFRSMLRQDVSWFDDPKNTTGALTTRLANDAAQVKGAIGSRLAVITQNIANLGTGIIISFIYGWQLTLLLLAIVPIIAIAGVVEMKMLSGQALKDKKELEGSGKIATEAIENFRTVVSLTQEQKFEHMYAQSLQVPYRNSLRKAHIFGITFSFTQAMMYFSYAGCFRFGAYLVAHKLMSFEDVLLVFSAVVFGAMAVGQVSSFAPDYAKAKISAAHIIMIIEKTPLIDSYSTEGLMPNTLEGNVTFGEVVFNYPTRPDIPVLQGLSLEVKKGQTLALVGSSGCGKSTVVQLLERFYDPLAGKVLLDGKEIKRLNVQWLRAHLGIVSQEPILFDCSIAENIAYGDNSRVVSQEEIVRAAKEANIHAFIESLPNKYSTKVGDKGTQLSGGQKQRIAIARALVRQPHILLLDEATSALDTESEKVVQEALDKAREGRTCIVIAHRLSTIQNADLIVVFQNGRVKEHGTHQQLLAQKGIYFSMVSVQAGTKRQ

For `CCCCCn1nc(C(=O)NC23CC4CC(CC(C4)C2)C3)c2ccccc21` [APINACA, N-(1-adamantyl)-1-pentyl-1H-indazole-3-carboxamide], the pIC50 in data set [1] (with 30-min preincubation, 30-min preincubation with UDPGA (○)) is 4.51; in data set [1] (without preincubation, 0.2 µM mycophenolic acid), 4.49; in data set [3] it was below 3.60; in data set [4] it was below 4.00; in data set [5], below 4.00; in data set [5] (read-out: IC50 UGT2B7 naloxone 3-β-D-glucuronidation, with 30-min preincubation, pooled human liver microsomes, 30-min preincubation with UDPGA (○)) it was below 4.00. In addition, the negative-log Ki (pKi) in data set [2] is 5.23. Besides, the “mode of inhibition of UGT1A9-catalyzed mycophenolic acid glucuronidation” value in data set [2] (human liver microsomes, enzyme kinetics study) is on record as “noncompetitively inhibited”. Also, the IC50 in data set [6] (IC50 (μM) No Preincubation, 2.5 μM midazolam, no preincubation) was 16.9 µM; in data set [6] (IC50 (μM) With Preincubation, 30-min preincubation with NADPH), 4.2 µM. Also, in data set [6] (NADPH), the “fold lower IC50 of CYP3A4 midazolam 1′-hydroxylase after 30-min preincubation than with no preincubation” value is listed as “ca. 4 fold”.

A word on the pIC50: it is the IC50 on a negative log10 scale, so that one unit is a factor of ten. In general, pKi refers to −log10 of the Ki, conventionally taken in molar units. A higher pKi goes with a small Ki. The IC50 is the concentration that inhibits the measured activity by half. Lower therefore signals greater potency.
